Assay [1] addresses MET (human) (Homo sapiens, UniProt P08581). Briefly: MET (human) AlphaScreen kinase assay, Km of ATP. It is filed as biochemical. The note with it: AlphaScreen, Km of ATP; read-out: Met biochemical IC50. The method in brief:
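Human MET at lot-optimised concentration in 50 mM Tris pH 7.4 buffer with 1 mM DTT, compound at 1% DMSO final; enzyme starts the reaction, 60 min at RT.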
For orientation: Alpha assays give light when donor and acceptor beads are brought close together.

The target in assay [2] is RON (human) (Homo sapiens, UniProt Q04912). The assay can be described thus: RON (human) AlphaScreen kinase assay, Km of ATP. The assay is classed as biochemical. The note with it: AlphaScreen, Km of ATP; read-out: RON biochemical IC50. The method in brief:
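Detection used PT66 AlphaScreen beads added in Tris pH 7.5/NaCl/EDTA/BSA buffer, read after 1 h incubation. Vehicle-only DMSO wells served as controls.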

Chain of RON (human) (Q04912 25-1400): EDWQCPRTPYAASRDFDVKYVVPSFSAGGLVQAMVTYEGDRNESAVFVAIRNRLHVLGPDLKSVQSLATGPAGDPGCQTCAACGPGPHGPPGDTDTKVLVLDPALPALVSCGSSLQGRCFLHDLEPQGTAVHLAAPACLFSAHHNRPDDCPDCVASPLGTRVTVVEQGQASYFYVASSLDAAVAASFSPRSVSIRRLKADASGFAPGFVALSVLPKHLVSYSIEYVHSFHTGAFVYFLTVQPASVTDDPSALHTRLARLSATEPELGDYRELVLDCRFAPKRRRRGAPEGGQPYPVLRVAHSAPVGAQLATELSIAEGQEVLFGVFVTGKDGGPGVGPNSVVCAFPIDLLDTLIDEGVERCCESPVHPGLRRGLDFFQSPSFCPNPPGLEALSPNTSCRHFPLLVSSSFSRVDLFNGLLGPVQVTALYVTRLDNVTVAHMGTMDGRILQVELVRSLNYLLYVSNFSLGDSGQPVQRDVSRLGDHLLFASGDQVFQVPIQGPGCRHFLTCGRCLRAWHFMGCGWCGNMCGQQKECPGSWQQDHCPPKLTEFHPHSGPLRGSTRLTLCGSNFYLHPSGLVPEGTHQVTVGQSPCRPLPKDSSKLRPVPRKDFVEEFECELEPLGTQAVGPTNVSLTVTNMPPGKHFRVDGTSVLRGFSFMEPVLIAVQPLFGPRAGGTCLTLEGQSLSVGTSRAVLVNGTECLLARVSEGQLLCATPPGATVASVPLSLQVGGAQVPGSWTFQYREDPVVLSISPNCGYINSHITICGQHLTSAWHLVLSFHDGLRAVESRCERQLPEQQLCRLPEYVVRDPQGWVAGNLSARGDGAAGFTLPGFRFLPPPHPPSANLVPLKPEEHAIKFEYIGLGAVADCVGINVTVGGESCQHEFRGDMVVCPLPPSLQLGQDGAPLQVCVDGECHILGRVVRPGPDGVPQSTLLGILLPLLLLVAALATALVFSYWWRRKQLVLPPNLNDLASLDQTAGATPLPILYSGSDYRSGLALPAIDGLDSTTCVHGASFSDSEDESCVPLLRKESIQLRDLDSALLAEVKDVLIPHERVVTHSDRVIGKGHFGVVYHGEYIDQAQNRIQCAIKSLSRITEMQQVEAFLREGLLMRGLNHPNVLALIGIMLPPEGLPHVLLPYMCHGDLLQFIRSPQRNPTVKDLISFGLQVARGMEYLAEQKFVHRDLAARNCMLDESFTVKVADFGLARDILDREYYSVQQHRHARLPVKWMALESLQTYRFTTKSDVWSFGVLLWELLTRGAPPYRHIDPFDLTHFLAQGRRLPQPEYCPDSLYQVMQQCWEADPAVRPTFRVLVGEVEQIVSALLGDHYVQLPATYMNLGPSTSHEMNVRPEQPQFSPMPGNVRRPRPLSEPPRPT
Chain of MET (human) (P08581 25-1390): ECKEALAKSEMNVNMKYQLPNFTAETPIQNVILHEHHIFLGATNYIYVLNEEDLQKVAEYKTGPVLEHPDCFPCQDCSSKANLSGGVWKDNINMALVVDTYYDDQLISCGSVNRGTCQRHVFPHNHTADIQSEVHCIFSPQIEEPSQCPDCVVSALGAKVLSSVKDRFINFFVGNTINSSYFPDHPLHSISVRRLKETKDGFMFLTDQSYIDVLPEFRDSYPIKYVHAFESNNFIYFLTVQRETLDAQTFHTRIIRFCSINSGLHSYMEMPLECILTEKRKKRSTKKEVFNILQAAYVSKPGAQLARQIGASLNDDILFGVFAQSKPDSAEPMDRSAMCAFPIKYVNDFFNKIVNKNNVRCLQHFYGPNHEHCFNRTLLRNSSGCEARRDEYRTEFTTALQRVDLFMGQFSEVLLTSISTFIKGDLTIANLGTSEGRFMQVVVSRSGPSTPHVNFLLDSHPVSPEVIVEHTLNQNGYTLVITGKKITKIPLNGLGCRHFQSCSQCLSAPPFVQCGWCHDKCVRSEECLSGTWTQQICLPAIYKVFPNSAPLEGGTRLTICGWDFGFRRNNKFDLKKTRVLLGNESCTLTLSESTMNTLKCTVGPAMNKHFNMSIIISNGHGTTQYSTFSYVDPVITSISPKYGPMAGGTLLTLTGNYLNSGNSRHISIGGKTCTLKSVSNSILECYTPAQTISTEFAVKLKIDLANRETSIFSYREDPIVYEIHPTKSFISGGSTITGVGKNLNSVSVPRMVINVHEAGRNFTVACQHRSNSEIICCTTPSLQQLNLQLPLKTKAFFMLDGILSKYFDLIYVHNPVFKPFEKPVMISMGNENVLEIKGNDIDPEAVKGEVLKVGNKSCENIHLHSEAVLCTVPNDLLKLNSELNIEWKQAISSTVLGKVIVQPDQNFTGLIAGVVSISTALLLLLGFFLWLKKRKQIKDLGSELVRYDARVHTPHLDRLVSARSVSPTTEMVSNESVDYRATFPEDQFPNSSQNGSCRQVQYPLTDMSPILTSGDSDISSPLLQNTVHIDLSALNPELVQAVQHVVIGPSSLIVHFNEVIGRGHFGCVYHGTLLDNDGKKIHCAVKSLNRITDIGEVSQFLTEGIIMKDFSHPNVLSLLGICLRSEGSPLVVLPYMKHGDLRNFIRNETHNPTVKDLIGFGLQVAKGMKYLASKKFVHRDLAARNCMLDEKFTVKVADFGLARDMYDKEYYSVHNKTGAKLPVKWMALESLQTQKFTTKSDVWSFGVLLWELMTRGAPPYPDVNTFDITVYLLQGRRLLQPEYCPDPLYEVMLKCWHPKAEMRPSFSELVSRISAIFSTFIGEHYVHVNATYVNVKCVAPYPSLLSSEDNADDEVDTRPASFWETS

The IC50 is the point on the concentration scale where inhibition reaches its midpoint. For `CNC(=O)c1ccc(C(C)Oc2c(N)ncc3c(-c4cnn(C5CCNCC5)c4)coc23)cc1` (stereo not shown) [Example 421, 4-{1-[6-Amino-3-(1-piperidin-4-yl-1H-pyrazol-4-yl)furo[3,2-c]pyridin-7-yloxy]ethyl}-N-methylbenzamide], the IC50 was 500 to 5000 nM in assay [1] and 5000 to 20000 nM in assay [2].

Regarding `C[C@@H](Oc1c(N)ncc2c(-c3ccc(C(=O)N4CCCN(C)CC4)cc3)coc12)c1c(Cl)ccc(F)c1Cl` [Example 293, (4-{6-Amino-7-[(R)-1-(2,6-dichloro-3-fluorophenyl)ethoxy]furo[3,2-c]pyridin-3-yl}phenyl)-(4-methyl-[1,4]diazepan-1-yl)methanone], the 50% inhibitory concentration (IC50) in assay [1] and in assay [2] was less than 500 nM each time.

For the molecule `C[C@@H](Oc1c(N)ncc2c(C3=CCN(C4CCC4)CC3)coc12)c1c(Cl)ccc(F)c1Cl` [Example 44, 3-(1-Cyclobutyl-1,2,3,6-tetrahydropyridin-4-yl)-7-[(R)-1-(2,6-dichloro-3-fluorophenyl)-ethoxy]-furo[3,2-c]pyridin-6-ylamine], the IC50 in assay [1] and in assay [2] was less than 500 nM throughout.

`C[C@@H](Oc1c(N)ncc2c(C3=CCN(C(=O)c4ncc[nH]4)CC3)coc12)c1c(Cl)ccc(F)c1Cl` [Example 232, (4-{6-Amino-7-[(R)-1-(2,6-dichloro-3-fluorophenyl)ethoxy]-furo[3,2-c]pyridin-3-yl}-3,6-dihydro-2H-pyridin-1-yl)-(1H-imidazol-2-yl)-methanone]: the IC50 in assay [1] and in assay [2] was 500 to 5000 nM in each case.

As for `C[C@@H](Oc1c(N)ncc2c(-c3cnn(C4CCNCC4)c3)c(C#CCCO)oc12)c1c(Cl)ccc(F)c1Cl` [Example 172, 4-[6-Amino-7-[(R)-1-(2,6-dichloro-3-fluorophenyl)ethoxy]-3-(1-piperidin-4-yl-1H-pyrazol-4-yl)-furo[3,2-c]pyridin-2-yl]-but-3-yn-1-ol], the IC50 in assay [1] and in assay [2] was less than 500 nM throughout.

In the case of `COCCNC(=O)c1coc2c(O[C@H](C)c3c(Cl)ccc(F)c3Cl)c(N)ncc12` [Example 192, 6-Amino-7-[(R)-1-(2,6-dichloro-3-fluorophenyl)ethoxy]furo[3,2-c]pyridine-3-carboxylic acid (3-methoxyethyl)amide], the IC50 in assay [1] is less than 500 nM; in assay [2], 500 to 5000 nM.

For `CC(Oc1c(N)ncc2c(-c3cnn(C4CCNCC4)c3)coc12)c1ccccc1Br` (stereo not shown) [Example 400, 7-[1-(2-Bromophenyl)ethoxy]-3-(1-piperidin-4-yl-1H-pyrazol-4-yl)furo[3,2-c]pyridin-6-ylamine], the IC50 in assay [1] was less than 500 nM; in assay [2] it was 500 to 5000 nM.

`CC(C)C(=O)N1CC=C(c2coc3c(O[C@H](C)c4c(Cl)ccc(F)c4Cl)c(N)ncc23)CC1` [Example 15, 1-(4-{6-Amino-7-[(R)-1-(2,6-dichloro-3-fluorophenyl)-ethoxy]-furo[3,2-c]pyridin-3-yl}-3,6-dihydro-2H-pyridin-1-yl)-2-methylpropan-1-one]: the IC50 in assay [1] and in assay [2] was 500 to 5000 nM throughout.

In the case of `C[C@@H](Oc1c(N)ncc2c(C3=CCN(C4CN(C(N)=O)C4)CC3)coc12)c1c(Cl)ccc(F)c1Cl` [Example 324, 3-(4-{6-Amino-7-[(R)-1-(2,6-dichloro-3-fluorophenyl)ethoxy]furo[3,2-c]pyridin-3-yl}-3,6-dihydro-2H-pyridin-1-yl)azetidine-1-carboxamide], the IC50 in assay [1] and in assay [2] was less than 500 nM each time.

With `C[C@@H](Oc1c(N)ncc2c(-c3cccc(C(=O)N4CCN(C)CC4)c3)coc12)c1c(Cl)ccc(F)c1Cl` [Example 94, (3-{6-Amino-7-[(R)-1-(2,6-dichloro-3-fluorophenyl)ethoxy]furo[3,2-c]pyridin-3-yl}phenyl)(4-methylpiperazin-1-yl)methanone], the IC50 in assay [1] was less than 500 nM; in assay [2], 500 to 5000 nM.

Consider `C[C@@H](Oc1c(N)ncc2c(C3=CCN(C(=O)CCCN(C)C)CC3)coc12)c1c(Cl)ccc(F)c1Cl` [Example 20, 1-(4-{6-Amino-7-[(R)-1-(2,6-dichloro-3-fluorophenyl)-ethoxy]-furo[3,2-c]pyridin-3-yl}-3,6-dihydro-2H-pyridin-1-yl)-4-dimethylaminobutan-1-one], for which the IC50 in assay [1] and in assay [2] was less than 500 nM in each case.

On to `CC(Cc1c(F)cccc1F)Oc1c(N)ncc2c(-c3cnn(C4CCNCC4)c3)coc12` (stereo not shown) [Example 418, 7-[2-(2,6-Difluorophenyl)-1-methylethoxy]-3-(1-piperidin-4-yl-1H-pyrazol-4-yl)furo[3,2-c]pyridin-6-ylamine], for which the IC50 was less than 500 nM in assay [1] and 500 to 5000 nM in assay [2].

In the case of `CCNC(=O)c1ccc(-c2coc3c(O[C@H](C)c4c(Cl)ccc(F)c4Cl)c(N)ncc23)s1` [Example 207, 5-{6-Amino-7-[(R)-1-(2,6-dichloro-3-fluorophenyl)ethoxy]-furo[3,2-c]pyridin-3-yl}-thiophene-2-carboxylic acid ethyl amide], the IC50 in assay [1] and in assay [2] was 500 to 5000 nM each time.

On to `C[C@@H](Oc1c(N)ncc2c(-c3cccc(CO)c3)coc12)c1c(Cl)ccc(F)c1Cl` [Example 57, (3-{6-Amino-7-[(R)-1-(2,6-dichloro-3-fluorophenyl)ethoxy]-furo[3,2-c]pyridin-3-yl}phenyl)methanol], for which the IC50 in assay [1] and in assay [2] was 500 to 5000 nM in each case.

As to `C[C@@H](Oc1c(N)ncc2c(C3=CCN(C(=O)OC4CCCC4)CC3)coc12)c1c(Cl)ccc(F)c1Cl` [Example 54, 4-{6-Amino-7-[(R)-1-(2,6-dichloro-3-fluorophenyl)-ethoxy]-furo[3,2-c]pyridin-3-yl}-3,6-dihydro-2H-pyridine-1-carboxylic acid cyclopentyl ester], the IC50 in assay [1] and in assay [2] was 500 to 5000 nM throughout.

As to `C[C@@H](Oc1c(N)ncc2c(C3=CCN(C(=O)C(N)C(F)(F)F)CC3)coc12)c1c(Cl)ccc(F)c1Cl` (stereo partly drawn) [Example 260, 2-Amino-1-[4-{6-amino-7-[(1R)-1-(2,6-dichloro-3-fluorophenyl)-ethoxy]furo[3,2-c]pyridin-3-yl}-3,6-dihydropyridin-1(2H)-yl]-3,3,3-trifluoropropan-1-one], the IC50 in assay [1] and in assay [2] was 500 to 5000 nM each time.

As to `CCNC(=O)N1CC=C(c2coc3c(O[C@H](C)c4c(Cl)ccc(F)c4Cl)c(N)ncc23)CC1` [Example 151, 4-{6-Amino-7-[(1R)-1-(2,6-dichloro-3-fluorophenyl)ethoxy]furo[3,2-c]pyridin-3-yl}-N-ethyl-3,6-dihydropyridine-1(2H)-carboxamide], the figures for the IC50 in assay [1] and in assay [2] were less than 500 nM and 500 to 5000 nM, respectively.

Consider `CCNC(=O)c1cc(-c2coc3c(O[C@H](C)c4c(Cl)ccc(F)c4Cl)c(N)ncc23)cs1` [Example 314, 4-{6-Amino-7-[(R)-1-(2,6-dichloro-3-fluorophenyl)ethoxy]furo[3,2-c]pyridin-3-yl}-thiophene-2-carboxylic acid Ethylamide], for which the IC50 in assay [1] and in assay [2] was 500 to 5000 nM in each case.

As to `C[C@@H](Oc1c(N)ncc2c(-c3ccc(C(=O)N4CCNCC4)cc3)coc12)c1c(Cl)ccc(F)c1Cl` [Example 106, (4-{6-Amino-7-[(R)-1-(2,6-dichloro-3-fluorophenyl)ethoxy]furo[3,2-c]pyridin-3-yl}phenyl)piperazin-1-ylmethanone], the IC50 in assay [1] and in assay [2] was less than 500 nM in each case.

`CC(Cc1ccccc1F)Oc1c(N)ncc2c(-c3cnn(C4CCNCC4)c3)coc12` (stereo not shown) [Example 423, 7-[2-(2-Fluorophenyl)-1-methylethoxy]-3-(1-piperidin-4-yl-1H-pyrazol-4-yl)furo[3,2-c]pyridin-6-ylamine]: the 50% inhibitory concentration (IC50) was less than 500 nM in assay [1] and 500 to 5000 nM in assay [2].

In the case of `CCNC(=O)c1csc(-c2coc3c(O[C@H](C)c4c(Cl)ccc(F)c4Cl)c(N)ncc23)c1` [Example 329, 5-{6-Amino-7-[(R)-1-(2,6-dichloro-3-fluorophenyl)ethoxy]furo[3,2-c]pyridin-3-yl}-thiophene-3-carboxylic acid Ethylamide], the IC50 in assay [1] was 500 to 5000 nM; in assay [2], 5000 to 20000 nM.

As for `CC(Cc1cccc(F)c1)Oc1c(N)ncc2c(-c3cnn(C4CCNCC4)c3)coc12` (stereo not shown) [Example 424, 7-[2-(3-Fluorophenyl)-1-methylethoxy]-3-(1-piperidin-4-yl-1H-pyrazol-4-yl)furo[3,2-c]pyridin-6-ylamine], the IC50 in assay [1] is less than 500 nM; in assay [2], 500 to 5000 nM.

On to `C[C@@H](Oc1c(N)ncc2c(C3=CCN(C(=O)C(C)(C)O)CC3)coc12)c1c(Cl)ccc(F)c1Cl` [Example 228, 1-(4-{6-Amino-7-[(R)-1-(2,6-dichloro-3-fluorophenyl)ethoxy]-furo[3,2-c]pyridin-3-yl}-3,6-dihydro-2H-pyridin-1-yl)-2-hydroxy-2-methylpropan-β-one], for which the IC50 in assay [1] and in assay [2] was 500 to 5000 nM in each case.

As to `Cc1ccc(-c2coc3c(O[C@H](C)c4c(Cl)ccc(F)c4Cl)c(N)ncc23)s1` [Example 95, 7-[(R)-1-(2,6-Dichloro-3-fluorophenyl)ethoxy]-3-(5-methylthiophen-2-yl)furo[3,2-c]pyridin-6-ylamine], the IC50 in assay [1] and in assay [2] was less than 500 nM each time.

As for `C[C@@H](Oc1c(N)ncc2c(C(=O)NC3CCNCC3)coc12)c1c(Cl)ccc(F)c1Cl` [Example 182, 6-Amino-7-[(R)-1-(2,6-dichloro-3-fluorophenyl)ethoxy]furo[3,2-c]pyridine-3-carboxylic acid piperidin-4-ylamide], the IC50 in assay [1] was less than 500 nM; in assay [2] it was 500 to 5000 nM.

For the molecule `Cc1ccc(C(C)Oc2c(N)ncc3c(-c4cnn(C5CCNCC5)c4)coc23)cc1` (stereo not shown) [Example 344, 3-(1-Piperidin-4-yl-1H-pyrazol-4-yl)-7-(1-p-tolylethoxy)furo[3,2-c]pyridin-6-ylamine], the IC50 in assay [1] and in assay [2] was 500 to 5000 nM throughout.

The values above are taken from patent US8022206B2 (OSI Pharmaceuticals, LLC, priority 2008, dated 2011).
